Reference: patent publication US10370376B2, “Amorphous substance of Idelalisib and preparation method therefor” (Alnova Pharmaceuticals, Ltd., priority 2015, dated 2019)
In brackets after ≈: the same amount, converted by molar mass. Values belong to the compound of their own block, whether it stands above or below them.

How the values were obtained:
Type in all cases: physicochemical
[1] = Accelerated stability test of the amorphous Idelalisib (HPLC and XRPD); details: for Crystalline (XRPD) / Relevant substances (Total impurities %): Temperature 40° C. ± 2° C., Humidity 75% ± 5%
Experimental: Experiment conditions: temperature 40° C.±2° C., humidity 75%±5% The substance was detected by HPLC.

[2] = Determination of apparent solubility (saturation solubility by HPLC) in diluents of different pH; details: pH 4.5 diluent, 37° C., shaken 12 hours, average of 3
[3] = as above; details: for solubility at 12 h: 37 °C, thermodynamic from solid; for solubility at 12 h / Apparent solubility: shaken 12 hours, average of 3; for Apparent solubility: 37° C.
Experimental: The crystalline Idelalisib, Form I, was prepared according to the method of Example 1 of U.S. Pat. No. 8,865,730.
Determination of apparent solubility: weigh a certain amount of the sample into a 1.8 mL of centrifuge tube, add 1 mL of the specified pH diluent, cap tightly. Each solution was prepared with 3 replicates (the amount of the added sample must be much larger than of which can be formed a saturated solution at different pH, details were shown in Table 1), and then 1 mL of the designated pH diluent was added. Then the centrifuge tube containing the test solution was shaken in a water bath at 37° C.±0.5° C. for 12 hours, let Stand in an oven at 37° C. for 2 hours. The upper lay was filtered through a […] microporous membrane. Pipette 200 uL of the filtrated solution into a vial containing 200 uL of acetonitrile, shaken to mix. Label it as test solution. Inject 2 uL of the test solution to HPLC system, record the peak area of main peak. Inject the reference standard solution following the same procedure as the test solution, record the peak area of the main peak of reference standard. According to the main peak area of the test solution and the reference solution, the concentration of the reference solution and the concentration of the test solution are calculated by external standard method. Then the saturation solubility will be obtained by multiplying concentration by the dilution factor of 2. The final result of saturation solubility is the average result of three parallel test samples.
Preparation of reference standard solution: accurately weight about 25 mg of Idelalisib (Form I) into a 25 mL of volumetric flask, dissolve and dilute to the volume with diluent (acetonitrile:water=1:1). The concentration of the reference standard is about 1 mg/mL.
Preparation of Diluents of Different pH:
(1) pH=1.0 diluent: Add 9 mL of concentrated HCl to a 1000 mL of volumetric flask, diluted to the volume with water.
(2) pH=2.0 diluent: Solution A: Transfer 16.6 mL of phosphoric acid to a 100 mL volumetric flask, dilute to the volume with water, shake to mix. Solution B: Weigh and transfer 71.63 g of […] to a 1000 mL of volumetric flask, dilute to the volume with water, dissolve and mix well. Mix 72.5 mL of solution A and 27.5 mL of solution B.
(3) pH=3.0 diluent: transfer 50 mL of glacial acetic acid to a 1000 mL of volumetric flask, add 800 mL of water, adjust pH to 3.0 with lithium hydroxide, then diluted to the volume with water.
(4) pH=4.0 diluent: weigh and transfer 7.7 g of ammonium acetate, dissolve with 50 mL of water, add 6 mL of glacial acetic acid, then diluted to 100 mL with water.
(5) pH=5.6 diluent: Phthalate buffer (pH 5.6): Transfer 10 g of potassium hydrogen phthalate, add 900 mL of water, stir to dissolve, adjust pH to 5.6 with sodium hydroxide solution (or diluted hydrochloric acid if necessary) then diluted to the volume with water.
(6) pH=6.8 diluent: mix 250 mL of 0.2 mol/L potassium dihydrogen phosphate solution and 118 mL of 0.2 mol/L sodium hydroxide solution, diluted to 1000 mL with water, shaken to mix.
(7) pH=7.4 diluent: transfer 1.36 g of potassium dihydrogen phosphate, add 79 mL of 0.1 mol/L sodium hydroxide solution, diluted to 200 mL with water.

[4] = Impact factor test of the amorphous Idelalisib (high temperature, high humidity; HPLC and XRPD)
[5] = accelerated test conditions after 6 months
[6] = high temperature, high humidity after 10 days

- Relevant substances (Total impurities %) ([1]; 0 month): 0.12%
- Relevant substances (Total impurities %) ([1]; 1 month): 0.14%
- Relevant substances (Total impurities %) ([1]; 2 months): 0.15%
- Relevant substances (Total impurities %) ([1]; 3 months): 0.16%
- Relevant substances (Total impurities %) ([1]; 6 months): 0.19%
- Changes in the relevant substances [1, 5]: no significant changes
- Apparent solubility [2]: 694.19 µg/mL
- Apparent solubility compared with that of the Form I ([3]; at each pH (1.0 to 7.4)): significantly higher
- solubility at 12 h ([3]; pH 1.0 diluent (dilute HCl), pH 1, simulated gastric fluid, pH 1.0 diluent): 52700 µg/mL (≈ 127000 µM)
- Apparent solubility ([3]; pH 2.0 diluent): 7037.94 µg/mL
- Apparent solubility ([3]; pH 3.0 diluent): 1622.95 µg/mL
- solubility at 12 h ([3]; pH 5.6 diluent (phthalate buffer), pH 5.6, aqueous buffer, pH 5.6 diluent): 75.8 µg/mL (≈ 182 µM)
- solubility at 12 h ([3]; pH 6.8 diluent (phosphate buffer), pH 6.8, aqueous buffer, pH 6.8 diluent): 75.3 µg/mL (≈ 181 µM)
- solubility at 12 h ([3]; pH 7.4 diluent (phosphate buffer), pH 7.4, aqueous buffer, pH 7.4 diluent): 74.3 µg/mL (≈ 179 µM)
- Relevant substances (Total impurities %) ([4]; 0 day): 0.12%
- Relevant substances (Total impurities %) ([4]; 5 days, Humidity 75% ± 5%): 0.14%
- Relevant substances (Total impurities %) ([4]; 5 days, Humidity 90% ± 5%): 0.16%
- Relevant substances (Total impurities %) ([4]; 5 days, Temperature 40° C. ± 2° C.): 0.13%
- Relevant substances (Total impurities %) ([4]; 5 days, Temperature 60° C. ± 2° C.): 0.14%
- Relevant substances (Total impurities %) ([4]; 10 days, Humidity 75% ± 5%): 0.14%
- Relevant substances (Total impurities %) ([4]; 10 days, Humidity 90% ± 5%): 0.16%
- Relevant substances (Total impurities %) ([4]; 10 days, Temperature 40° C. ± 2° C.): 0.14%
- Relevant substances (Total impurities %) ([4]; 10 days, Temperature 60° C. ± 2° C.): 0.16%
- Changes in the relevant substances [4, 6]: no significant changes
Structure (SMILES): CC[C@H](Nc1ncnc2[nH]cnc12)c1nc2cccc(F)c2c(=O)n1-c1ccccc1 [amorphous Idelalisib, 5-fluoro-3-phenyl-2-[(1S)-1-(9H-purin-6-ylamino)propyl]-4(3H)-quinazolinone]
- Crystalline (XRPD) ([1]; 0 month): There is no peak of crystalline Idelalisib
- Crystalline (XRPD) ([1]; 1 month): There is no peak of crystalline Idelalisib
- Crystalline (XRPD) ([1]; 2 months): There is no peak of crystalline Idelalisib
- Crystalline (XRPD) ([1]; 3 months): There is no peak of crystalline Idelalisib
- Crystalline (XRPD) ([1]; 6 months): There is no peak of crystalline Idelalisib
- Crystallization of Idelalisib [1, 5]: no crystallization of Idelalisib was observed
- Crystalline (XRPD) ([4]; 0 day): There is no peak of crystalline Idelalisib
- Crystalline (XRPD) ([4]; 5 days, all four conditions (40° C., 60° C., humidity 75%, 90%)): There is no peak of crystalline Idelalisib
- Crystalline (XRPD) ([4]; 10 days, all four conditions (40° C., 60° C., humidity 75%, 90%)): There is no peak of crystalline Idelalisib
- Crystallization of Idelalisib [4, 6]: no crystallization of Idelalisib was observed

- Apparent solubility [2]: 147.02 µg/mL
- Apparent solubility ([3]; pH 1.0 diluent): 34580.16 µg/mL
- Apparent solubility ([3]; pH 2.0 diluent): 1756.55 µg/mL
- Apparent solubility ([3]; pH 3.0 diluent): 317.47 µg/mL
- Apparent solubility ([3]; pH 5.6 diluent): 46.91 µg/mL
- Apparent solubility ([3]; pH 6.8 diluent): 47.35 µg/mL
- Apparent solubility ([3]; pH 7.4 diluent): 45.08 µg/mL
Structure (SMILES): CC[C@H](Nc1ncnc2[nH]cnc12)c1nc2cccc(F)c2c(=O)n1-c1ccccc1 [crystalline Idelalisib (Form I), 5-fluoro-3-phenyl-2-[(1S)-1-(9H-purin-6-ylamino)propyl]-4(3H)-quinazolinone, reference compound]
